Measurements from patent US20110039770A1, “INHIBITORS OF PROTEIN KINASE C ISOFORMS AND USES THEREOF” (PHARMAGAP INC., priority 2005, published 2011).
Where a SMILES comes first, the peptide text is derived from it.

Key:
PKC-βI = PKC-βI (Homo sapiens, UniProt P05771); assay: Competition of PRE with PKC-βI antibody binding, Protocol B, IMR-32; parameters: PKC-βII by PRE 3 and PRE 4 in IMR-32 Neuroblastoma; endogenous in cells; host or cells: IMR-32 human neuroblastoma cells; settings: for Band Intensity: Protocol B (control 170.5)
Experimental: The ability of the peptides PRE 2 and PRE 3 (see Table 4) to interfere with the binding of a PKC-α-specific polyclonal antibody (Santa Cruz Biotechnology, Inc.) to PKC-α was determined using a modified version of the protocol outlined above in which the test peptide was added directly to the cell extract prior to electrophoresis at a concentration of either 5× or 15× the concentration of the protein applied to each well of the gel for the Western blots (20 μg).
Peptides PRE 3 and PRE 4 (see Table 4) were tested for their ability to interfere with the binding of isoform-specific polyclonal antibodies (Santa Cruz Biotechnology, Inc.) to PKC-α, PKC-βI or PKC-βII using the general protocol described in Example 3.

PKC-α = PKC-α (Homo sapiens, UniProt P17252); assay: Competition of PRE with PKC-α antibody binding on Western blot, Protocol A, IMR-32 lysate; parameters: endogenous PKC-α in (A) untreated human neuroblastoma (IMR-32) cells; endogenous in cells; host or cells: IMR-32 human neuroblastoma cells; settings: IMR-32 cells
Experimental: The ability of the PRE 1, 2 and 3 (see Table 3 above) to interfere with the binding of a PKC-α-specific polyclonal antibody to PKC-α was determined using the following protocol.
(§1) Cell lysates from either IMR-32 (human neuroblastoma) cells or C6Cx43 cells (rat glioma transfected cells overexpressing connexin 43) were obtained using standard protocols and the proteins of the lysate were separated by SDS PAGE electrophoresis and electrotransferred onto a nitrocellulose membrane. The membrane was incubated for 30 minutes in blocking buffer (TBST) containing the test peptide at either 5× or 20× the concentrations of the primary antibody. A primary polyclonal antibody specific for PKC-α (Santa Cruz Biotechnology, Inc., CA) was then added (15 μg/ml) and the membrane incubated for a further 45 minutes. Finally, the primary antibody was detected with a secondary antibody conjugated to alkaline phosphatase using standard procedures. The intensity of the band corresponding to PKC-α was assessed by scanning and densitometry using the Gel-Pro software (Media Cybernetics) to obtain relative band intensities (average of 3 replicas). Control assays were conducted as described above except that blocking buffer without peptide was used.
The results are expressed as relative band intensity and as a percentage of the intensity of the corresponding band in the control assay (“Relative intensity (%)”). “% inhibition” relates to the percentage of the PKC-α band that is inaccessible to the antibody.

PKC-β = target: T1, PKC-β (Homo sapiens, UniProt P05771); assay: Competition of PRE with PKC-β antibody binding, Protocol A, IMR-32 lysate
T1 construct: PRE 2 and PRE 3 in IMR-32 Neuroblastoma Cells: Protocol A; endogenous in cells; host or cells: IMR-32 human neuroblastoma cells
Experimental: as §1
Peptides PRE 1, PRE 2 and PRE 3 (see Table 4) were tested for their ability to interfere with the binding of a PKC-β-specific polyclonal antibody (Santa Cruz Biotechnology, Inc.) to PKC-β using the general protocol described in Example 1. […] It is worth noting in this regard that PKC-α and PKC-β belong to the same sub-group of PKCs (cPKCs).

PKC-ε = assay: Competition of PRE with PKC-ε antibody binding, Protocol B, IMR-32; parameters: species or system human
Experimental: Peptides PRE 2, PRE 3 and PRE 4 (see Table 4) were tested for their ability to interfere with the binding of isoform-specific polyclonal antibodies (Santa Cruz Biotechnology, Inc.) to […] using the general protocol described in Example 3. Two bands, representing alternate splicing variants of PKC-ε, were identified on the Western blot using this anti-PKC-ε antibody.

Sequence of PKC-βI (P05771 whole entry): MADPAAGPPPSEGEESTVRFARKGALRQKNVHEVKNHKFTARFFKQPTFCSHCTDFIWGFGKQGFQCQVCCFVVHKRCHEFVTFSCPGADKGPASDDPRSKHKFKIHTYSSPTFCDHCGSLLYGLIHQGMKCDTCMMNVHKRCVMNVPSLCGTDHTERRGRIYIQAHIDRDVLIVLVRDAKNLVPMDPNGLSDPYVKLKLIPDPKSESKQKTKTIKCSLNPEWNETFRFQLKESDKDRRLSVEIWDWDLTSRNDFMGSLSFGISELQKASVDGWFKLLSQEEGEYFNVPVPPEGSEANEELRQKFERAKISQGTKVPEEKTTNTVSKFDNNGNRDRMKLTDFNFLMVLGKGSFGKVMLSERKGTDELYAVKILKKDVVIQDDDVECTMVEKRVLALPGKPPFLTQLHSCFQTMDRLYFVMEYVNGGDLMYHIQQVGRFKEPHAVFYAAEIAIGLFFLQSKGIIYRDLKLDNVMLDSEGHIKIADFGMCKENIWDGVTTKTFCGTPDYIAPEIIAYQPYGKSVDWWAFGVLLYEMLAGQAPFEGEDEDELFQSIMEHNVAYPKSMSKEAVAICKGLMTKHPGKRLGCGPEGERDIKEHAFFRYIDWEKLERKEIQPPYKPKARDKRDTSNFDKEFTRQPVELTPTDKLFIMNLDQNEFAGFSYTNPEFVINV
T1 sequence (P05771 whole entry): as above

| Molecule | Band Intensity (PKC-βI; 100 μg) | Band Intensity (PKC-βI; 200 μg) | Band Intensity (PKC-βI; 300 μg) | Band Intensity (PKC-α; 75 μg) | Band Intensity (PKC-α; 300 μg) | Band Intensity (PKC-β; 75 μg) | Inhibition (%) (PKC-β; 75 μg) | Band Intensity (PKC-β; 300 μg) | Inhibition (%) (PKC-β; 300 μg) | Inhibition (%) (PKC-ε; 20 μg, PKC-ε Band 1) | Relative Intensity (%) (PKC-ε; 20 μg, PKC-ε Band 1) | Inhibition (%) (PKC-ε; 20 μg, PKC-ε Band 2) | Relative Intensity (%) (PKC-ε; 20 μg, PKC-ε Band 2) | Inhibition (%) (PKC-ε; 50 μg, PKC-ε Band 1) | Relative Intensity (%) (PKC-ε; 50 μg, PKC-ε Band 1) | Inhibition (%) (PKC-ε; 50 μg, PKC-ε Band 2) | Relative Intensity (%) (PKC-ε; 50 μg, PKC-ε Band 2) | Inhibition (%) (PKC-ε; 100 μg, PKC-ε Band 1) | Relative Intensity (%) (PKC-ε; 100 μg, PKC-ε Band 1) | Inhibition (%) (PKC-ε; 100 μg, PKC-ε Band 2) | further results |
| --- | --- | --- | --- | --- | --- | --- | --- | --- | --- | --- | --- | --- | --- | --- | --- | --- | --- | --- | --- | --- | --- |
| CC[C@H](C)[C@H](NC(=O)[C@H](CO)NC(=O)[C@@H](NC(=O)CNC(=O)[C@@H](NC(=O)[C@H](CC(C)C)NC(=O)[C@H](CC(N)=O)NC(=O)[C@H](CCC(N)=O)NC(=O)[C@H](C)NC(=O)[C@H](CC(=O)O)NC(=O)CNC(=O)CNC(=O)[C@H](CCCCN)NC(=O)[C@@H](NC(=O)[C@H](CCC(=O)O)NC(=O)[C@H](CCC(N)=O)NC(=O)[C@@H](NC(=O)CNC(=O)[C@H](CCCCN)NC(=O)[C@H](C)NC(C)=O)[C@@H](C)CC)C(C)C)[C@@H](C)CC)[C@@H](C)CC)C(N)=O [PRE 3] (Ac-AKGIQEVKGGDAQNLIGISI-NH2) | 0.0 | 0.0 | 0.0 | 0.889 | 0.922 | 1.900 | 0.0% | 1.900 | 0.0% | 99.0% | 0.12% | 100.0% | 0.0% | 100.0% | 0.0% | 100.0% | 0.0% | 100.0% | 0.0% | 100.0% | Relative Intensity (%) (PKC-βI; 200 μg, Protocol B): 0.0%; remaining activity at 0.075 mg (PKC-β; 75 μg, read-out: Relative Intensity (%)): 102%; remaining activity at 0.3 mg (PKC-β; 300 μg, read-out: Relative Intensity (%)): 102%; Band Intensity (PKC-β; 600 μg): 1.847; Inhibition (%) (PKC-β; 600 μg): 0.0%; remaining activity at 0.6 mg (PKC-β; 600 μg, read-out: Relative Intensity (%)): 99.6%; Relative Intensity (%) (PKC-ε; 100 μg, PKC-ε Band 2): 0.0% |
| CC[C@H](C)[C@H](NC(=O)[C@H](CO)NC(=O)[C@@H](NC(=O)CNC(=O)[C@@H](NC(=O)[C@H](CC(C)C)NC(=O)[C@H](CC(N)=O)NC(=O)[C@H](CCC(N)=O)NC(=O)[C@H](C)NC(=O)[C@H](CC(=O)O)NC(=O)[C@H](CCCCN)NC(C)=O)[C@@H](C)CC)[C@@H](C)CC)C(N)=O [PRE 4, Ac-KDAQNLIGISI-NH2] (Ac-KDAQNLIGISI-NH2) | 112.5 | 0.0 | 0.0 |  |  |  |  |  |  | 42.9% | 57.1% | 46.6% | 53.33% | 100.0% | 0.0% | 100.0% | 0.0% | 100.0% | 0.0% | 100.0% | Relative Intensity (%) (PKC-ε; 100 μg, PKC-ε Band 2): 0.0% |
| RRKKGGKDFVVKR [PRE 1] |  |  |  | 1.040 | 0.771 | 0.825 | 28.9% | 0.528 | 54.5% |  |  |  |  |  |  |  |  |  |  |  | Inhibition (%) (PKC-α; 75 μg): 50.2%; Relative Intensity (%) (PKC-α; 75 μg): 49.8%; Inhibition (%) (PKC-α; 300 μg): 63.1%; Relative Intensity (%) (PKC-α; 300 μg): 36.9%; Relative Intensity (%) (PKC-β; 75 μg): 71.1%; Relative Intensity (%) (PKC-β; 300 μg): 45.5% |
